{"source": "patent US20250353891A1", "about": "(MEDIMMUNE LIMITED, priority 2022, published 2025)", "key": {"[1]": {"tested_on": "wildtype (WT) mice", "test": "Glucose change in wildtype mice", "assay_type": "in vivo, mouse", "settings": "s.c.; for WT % glucose change 120 min: 120 min vs 0 min; for WT % glucose change 60 min: 60 min vs 0 min", "description": "(§1) GLP-1R knockout (KO) and wildtype (WT) mice at 8-14 weeks of age were singly housed on standard chow diet (Envigo, 2918) and automatic water. They acclimated for a minimum of ˜1-2 weeks, and mice were sorted into groups (n=4-8/group) based on body weight. On day of study, mice were fasted briefly for 2 hrs prior to study start. In some studies, mice were pre-treated with octreotide (BaChem, 10 mg/kg) at 30 minutes prior to peptide injection. Glucose was measured via glucometer at various timepoints including-30 min (prior to octreotide when used in studies), 0 min (before peptide dose), 30, 60, 120, 180, 240, and 360 minutes. Since these studies are acute in nature, mice were re-used for multiple studies (no more than 3) and always allowed at least a minimum wash-out period of 1 week."}, "[2]": {"test": "Mouse acute food intake study", "assay_type": "in vivo", "settings": "male C57Bl/6 mice, s.c., cumulative food intake at 24 hr vs vehicle", "procedure,_shortened": "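Single-housed male C57Bl/6 mice (8-9 weeks on arrival), chow-fed, acclimated and sham-dosed ≥2 times, were fasted 6-8 h, then given vehicle or peptide subcutaneously at 5 mL/kg 1-2 h before lights out. Food intake was recorded automatically over 48 h and analysed as cumulative intake.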"}, "[3]": {"tested_on": "GLP-1R knockout (KO) mice", "test": "Glucose change in GLP-1R knockout mice", "assay_type": "in vivo, mouse", "settings": "GLP-1R KO mice, s.c.; for GLP-1R KO % glucose change 120 min: 120 min vs 0 min; for GLP-1R KO % glucose change - 60 min: 60 min vs 0 min", "description": "as §1, with “They” for “GLP-1R knockout (KO) and wildtype (WT) mice at 8-14 weeks of age were singly housed on standard chow diet (Envigo, 2918) and automatic water. They”"}, "[4]": {"molecular_target": "human GLP-1 receptor (hGLP-1R) (Homo sapiens, UniProt P43220)", "sequence (P43220 24-463)": "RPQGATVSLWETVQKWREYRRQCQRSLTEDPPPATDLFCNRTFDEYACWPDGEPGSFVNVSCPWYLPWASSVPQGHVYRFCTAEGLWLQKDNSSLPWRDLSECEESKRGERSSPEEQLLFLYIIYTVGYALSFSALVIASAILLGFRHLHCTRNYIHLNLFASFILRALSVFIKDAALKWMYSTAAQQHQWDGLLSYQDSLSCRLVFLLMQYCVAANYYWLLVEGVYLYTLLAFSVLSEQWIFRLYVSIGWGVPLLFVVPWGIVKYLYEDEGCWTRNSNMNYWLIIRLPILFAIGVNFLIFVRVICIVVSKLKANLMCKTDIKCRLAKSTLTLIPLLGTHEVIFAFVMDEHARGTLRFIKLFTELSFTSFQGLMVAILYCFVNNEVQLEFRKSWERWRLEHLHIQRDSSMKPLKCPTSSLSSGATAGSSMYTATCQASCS", "test": "cAMP production (HTRF) in CHO cells expressing hGLP-1R", "assay_type": "cell-based", "set-up": "expressed in transfected cells", "settings": "for EC50: Table 7, peptides modified at position 20, cAMP in CHO hGLP-1R cells, geometric mean, read-out: hGLP-1R EC50; for % Relative Potency Ratio: % GLP-1R activity relative to GLP-1 / % GlucR activity relative to glucagon", "procedure,_shortened": "(§2)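 Potency values represent EC50 from 4-parameter logistic curves of HTRF % Delta F signal. Receptor-expressing CHO cells (hGCGR 2×10^5 cells/mL, hGLP-1R 1×10^5 cells/mL) were exposed for 30 min at room temperature before two-step cAMP detection.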"}, "[5]": {"molecular_target": "human glucagon receptor (hGCGR) (Homo sapiens, UniProt P47871)", "sequence (P47871 26-477)": "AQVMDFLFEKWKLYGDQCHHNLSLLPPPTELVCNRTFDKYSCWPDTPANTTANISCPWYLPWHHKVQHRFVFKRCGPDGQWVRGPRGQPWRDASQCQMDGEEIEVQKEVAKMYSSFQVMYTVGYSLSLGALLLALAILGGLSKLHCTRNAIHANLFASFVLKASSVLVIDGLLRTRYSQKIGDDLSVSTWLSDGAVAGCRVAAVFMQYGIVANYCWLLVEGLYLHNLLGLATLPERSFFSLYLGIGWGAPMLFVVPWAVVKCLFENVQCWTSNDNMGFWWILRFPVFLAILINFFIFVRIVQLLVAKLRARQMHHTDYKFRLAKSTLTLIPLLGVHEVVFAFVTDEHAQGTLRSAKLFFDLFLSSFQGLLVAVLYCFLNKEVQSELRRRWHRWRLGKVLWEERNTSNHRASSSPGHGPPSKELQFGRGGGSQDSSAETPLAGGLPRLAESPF", "test": "cAMP production (HTRF) in CHO cells expressing hGCGR", "assay_type": "cell-based", "set-up": "expressed in transfected cells", "settings": "Table 7, peptides modified at position 20; cAMP in CHO hGCGR cells; geometric mean; read-out: hGluc-R EC50", "procedure,_shortened": "as §2"}, "[6]": {"settings": "10 nmol/kg, somatostatin pretreatment (octreotide) 30 min prior to cpd"}, "[7]": {"settings": "30 nmol/kg, somatostatin pretreatment (octreotide) 30 min prior to cpd"}, "[8]": {"settings": "10 nmol/kg, no somatostatin pretreatment"}, "[9]": {"settings": "30 nmol/kg, no somatostatin pretreatment"}, "[10]": {"settings": "3 nmol/kg, no somatostatin pretreatment"}}, "note": "Values joined by “and” are separate entries in the source; they are usually repeats but may differ in a detail not shown here. Identical values can stand only once. Starred links: 1 amine or outer side, 2 acyl side, 3 side chain; linkers in the order of their positions; H or OH if unused. Non-standard residues stand in square brackets, D forms with d. Residues, ends and D or L forms follow the SMILES beside them. Groups on a side chain read outwards from the residue. *: point of attachment. C20 diacid = O=C(O)CCCCCCCCCCCCCCCCCCC(=O)*; C18 diacid = O=C(O)CCCCCCCCCCCCCCCCC(=O)*; γGlu = O=C(O)[C@H](CCC(=O)[*:2])N[*:1]; Stearoyl = CCCCCCCCCCCCCCCCCC(=O)*; αMeF = C[C@](N)(Cc1ccccc1)C(=O)O; Nle = CCCC[C@H](N)C(=O)O; PEG2 = NCCOCCOCCC(=O)O; AEEA = NCCOCCOCC(=O)O; Aib = CC(C)(N)C(=O)O"}
{"smiles": "CC[C@H](C)[C@H](NC(=O)[C@H](Cc1c[nH]c2ccccc12)NC(=O)[C@H](CCC(N)=O)NC(=O)[C@@H](NC(=O)[C@H](Cc1ccccc1)NC(=O)[C@H](CC(=O)O)NC(=O)[C@H](CCCCNC(=O)COCCOCCNC(=O)COCCOCCNC(=O)CC[C@H](NC(=O)CCCCCCCCCCCCCCCCC(=O)O)C(=O)O)NC(=O)[C@H](C)NC(=O)[C@H](C)NC(=O)[C@H](CCC(N)=O)NC(=O)[C@H](CO)NC(=O)[C@H](CC(=O)O)NC(=O)[C@H](CC(C)C)NC(=O)[C@](C)(Cc1ccccc1)NC(=O)[C@H](CCCCN)NC(=O)[C@H](CO)NC(=O)[C@@H](NC(=O)[C@H](CC(=O)O)NC(=O)[C@H](CO)NC(=O)[C@@H](NC(=O)[C@](C)(Cc1ccccc1)NC(=O)[C@H](CO)NC(=O)CNC(=O)[C@H](Cc1c[nH]cn1)NC(=O)C(C)(C)NC(=O)[C@@H](N)Cc1c[nH]cn1)[C@@H](C)O)C(C)C)C(C)C)C(=O)N[C@@H](C)C(=O)N[C@@H](CC(N)=O)C(=O)N[C@H](C(N)=O)[C@@H](C)O", "note": "[Peptide 203] (H-H[Aib]HGS[αMeF]TSDVSK[αMeF]LDSQAAK([AEEA-AEEA-γGlu-C18 diacid])DFVQWIANT-NH2; N-terminus assumed)", "values": [{"measurement": "WT % glucose change 120 min", "setting": "[1]; [6]", "value": "−29.5", "unit": "%"}, {"measurement": "WT % glucose change 120 min", "setting": "[1]; [7]", "value": "−36.5", "unit": "%"}, {"measurement": "24 hr % Vehicle Food Intake", "setting": "[2]; dose 10 nmol/kg", "value": 81.4, "unit": "%"}, {"measurement": "GLP-1R KO % glucose change 120 min", "setting": "[3]; [6]", "value": 54.6, "unit": "%"}, {"measurement": "GLP-1R KO % glucose change 120 min", "setting": "[3]; [7]", "value": 106.9, "unit": "%"}, {"measurement": "EC50", "setting": "[4]", "value": 0.0775, "unit": "nM"}, {"measurement": "% Relative Potency Ratio", "setting": "[4]; Table 7", "value": 0.9}, {"measurement": "EC50", "setting": "[5]", "value": 0.0341, "unit": "nM"}]}
{"smiles": "CC(C)C[C@H](NC(=O)[C@H](Cc1c[nH]c2ccccc12)NC(=O)[C@H](CCC(N)=O)NC(=O)[C@@H](NC(=O)[C@H](Cc1ccccc1)NC(=O)[C@H](CC(=O)O)NC(=O)[C@H](CCCNC(=N)N)NC(=O)[C@H](C)NC(=O)[C@H](CCCNC(=N)N)NC(=O)[C@H](CCCCNC(=O)COCCOCCNC(=O)COCCOCCNC(=O)CC[C@H](NC(=O)CCCCCCCCCCCCCCCCCCC(=O)O)C(=O)O)NC(=O)[C@@H](NC(=O)[C@H](CC(=O)O)NC(=O)[C@H](CC(C)C)NC(=O)[C@](C)(Cc1ccccc1)NC(=O)[C@H](CCCCN)NC(=O)[C@H](CO)NC(=O)[C@@H](NC(=O)[C@H](CC(=O)O)NC(=O)[C@H](CO)NC(=O)[C@@H](NC(=O)[C@H](Cc1ccccc1)NC(=O)[C@@H](NC(=O)CNC(=O)[C@H](CCC(N)=O)NC(=O)C(C)(C)NC(=O)[C@@H](N)Cc1c[nH]cn1)[C@@H](C)O)[C@@H](C)O)C(C)C)[C@@H](C)O)C(C)C)C(=O)N[C@@H](CC(C)C)C(=O)N[C@@H](CCC(=O)O)C(=O)NC(C)(C)C(=O)NCC(=O)O", "note": "[Peptide 195, H-Aib-Q-G-T-F-T-S-D-V—S-K-αMePhe-L-D-T-K-R-A-R-D-F-V-Q-W-L-L-E-Aib-G-acid]", "values": [{"measurement": "WT % glucose change 60 min", "setting": "[1]; [8]", "value": 1.4, "unit": "%"}, {"measurement": "WT % glucose change 60 min", "setting": "[1]; [9]", "value": "−17.0", "unit": "%"}, {"measurement": "24 hr % Vehicle Food Intake", "setting": "[2]; dose 1 nmol/kg", "value": 102.1, "unit": "%"}, {"measurement": "24 hr % Vehicle Food Intake", "setting": "[2]; dose 3 nmol/kg", "value": 84.0, "unit": "%"}, {"measurement": "24 hr % Vehicle Food Intake", "setting": "[2]; dose 10 nmol/kg", "value": "58.2% and 49.9%"}, {"measurement": "GLP-1R KO % glucose change - 60 min", "setting": "[3]; [8]", "value": 35.3, "unit": "%"}, {"measurement": "GLP-1R KO % glucose change - 60 min", "setting": "[3]; [9]", "value": 48.0, "unit": "%"}]}
{"smiles": "CC[C@H](C)[C@H](NC(=O)[C@H](Cc1c[nH]c2ccccc12)NC(=O)[C@H](CCC(N)=O)NC(=O)[C@@H](NC(=O)[C@H](Cc1ccccc1)NC(=O)[C@H](CC(=O)O)NC(=O)[C@H](CCCCNC(=O)COCCOCCNC(=O)COCCOCCNC(=O)CC[C@H](NC(=O)CC[C@H](NC(=O)CCCCCCCCCCCCCCCCCCC(=O)O)C(=O)O)C(=O)O)NC(=O)[C@H](C)NC(=O)[C@H](C)NC(=O)[C@H](CCCNC(=N)N)NC(=O)[C@H](CO)NC(=O)[C@H](CC(=O)O)NC(=O)[C@H](CC(C)C)NC(=O)[C@H](Cc1ccc(O)cc1)NC(=O)[C@H](CCCCN)NC(=O)[C@H](CO)NC(=O)[C@@H](NC(=O)[C@H](CC(=O)O)NC(=O)[C@H](CO)NC(=O)[C@@H](NC(=O)[C@](C)(Cc1ccccc1)NC(=O)[C@H](CO)NC(=O)CNC(=O)[C@H](Cc1c[nH]cn1)NC(=O)C(C)(C)NC(=O)[C@@H](N)Cc1c[nH]cn1)[C@@H](C)O)C(C)C)C(C)C)C(=O)N[C@@H](C)C(=O)N[C@@H](CC(N)=O)C(=O)N[C@H](C(N)=O)[C@@H](C)O", "note": "[Peptide 289] (H-H[Aib]HGS[αMeF]TSDVSKYLDSRAAK([AEEA-AEEA-γGlu-γGlu-C20 diacid])DFVQWIANT-NH2)", "values": [{"measurement": "WT % glucose change 120 min", "setting": "[1]; [8]", "value": "−8.5", "unit": "%"}, {"measurement": "WT % glucose change 120 min", "setting": "[1]; [9]", "value": "−16.1", "unit": "%"}, {"measurement": "24 hr % Vehicle Food Intake", "setting": "[2]; dose 3 nmol/kg", "value": 76.1, "unit": "%"}, {"measurement": "24 hr % Vehicle Food Intake", "setting": "[2]; dose 10 nmol/kg", "value": 49.6, "unit": "%"}, {"measurement": "GLP-1R KO % glucose change 120 min", "setting": "[3]; [8]", "value": 8.9, "unit": "%"}, {"measurement": "GLP-1R KO % glucose change 120 min", "setting": "[3]; [9]", "value": 7.7, "unit": "%"}, {"measurement": "EC50", "setting": "[4]", "value": 0.118, "unit": "nM"}, {"measurement": "% Relative Potency Ratio", "setting": "[4]; Table 7", "value": 2.5}, {"measurement": "EC50", "setting": "[5]", "value": 0.148, "unit": "nM"}]}
{"smiles": "CCCCCCCCCCCCCCCCCC(=O)N[C@@H](CCC(=O)N[C@@H](CCC(=O)NCCOCCOCCC(=O)NCCOCCOCCC(=O)NCCCC[C@H](NC(=O)[C@H](CO)NC(=O)[C@H](CC(=O)O)NC(=O)[C@H](CC(C)C)NC(=O)[C@](C)(Cc1ccccc1)NC(=O)[C@H](CCCCN)NC(=O)[C@H](CO)NC(=O)[C@@H](NC(=O)[C@H](CC(=O)O)NC(=O)[C@H](CO)NC(=O)[C@@H](NC(=O)[C@H](Cc1ccccc1)NC(=O)[C@@H](NC(=O)CNC(=O)[C@H](CCC(N)=O)NC(=O)C(C)(C)NC(=O)[C@@H](N)Cc1c[nH]cn1)[C@@H](C)O)[C@@H](C)O)C(C)C)C(=O)N[C@@H](CCCNC(=N)N)C(=O)N[C@@H](C)C(=O)N[C@@H](CCC(N)=O)C(=O)N[C@@H](CC(=O)O)C(=O)N[C@@](C)(Cc1ccccc1)C(=O)N[C@H](C(=O)N[C@@H](CCC(N)=O)C(=O)NC(C)(C)C(=O)N[C@@H](CC(C)C)C(=O)N[C@@H](CCCC)C(=O)N[C@@H](CCC(=O)O)C(=O)N[C@H](C(N)=O)[C@@H](C)O)C(C)C)C(=O)O)C(=O)O", "note": "[Peptide 69] (H-H[Aib]QGTFTSDVSK[αMeF]LDSK([PEG2-PEG2-γGlu-γGlu-Stearoyl])RAQD[αMeF]VQ[Aib]L[Nle]ET-NH2; N-terminus assumed)", "values": [{"measurement": "WT % glucose change 120 min", "setting": "[1]; [10]", "value": "−27.2", "unit": "%"}, {"measurement": "24 hr % Vehicle Food Intake", "setting": "[2]; dose 10 nmol/kg", "value": 74.3, "unit": "%"}, {"measurement": "GLP-1R KO % glucose change 120 min", "setting": "[3]; [10]", "value": 17.6, "unit": "%"}, {"measurement": "% Relative Potency Ratio", "setting": "[4]; Table 6", "value": 11.1}]}
